Patent publication US20180327367A1, “MACROCYCLIC BROAD SPECTRUM ANTIBIOTICS” (priority 2015, published 2018)
In brackets after ≈: the same amount, converted by molar mass. Where two headings read alike, the source gives them in different places.

How the values were obtained:
[1] = tested on: Methicillin Resistant Staphylococcus aureus strain USA 300, NRS384; assay: Minimum inhibitory concentration, broth micro-dilution (CLSI), S. aureus; assay type: cell-based; details: Staphylococcus aureus, MRSA / NRS 384 / USA300, 22 h, 35° C., 22 hours
Method in brief: (§1)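 CLSI broth microdilution in cation-adjusted Mueller Hinton Broth with 0.002% Tween-80; inoculum final OD600 0.0005, 22 hours at 35° C. Ten 2-fold dilutions starting at 4 μg/mL (protocol 2) or 0.5 μg/mL (protocol 3).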

[2] = tested on: Escherichia coli MC4100 harboring the IMP4213 (E. coli IMP); assay: microbe, parasite or virus in culture; assay type: cell-based; details: Escherichia coli, 22 h, read-out: MIC (μg/mL) E. coli IMP, E. coli MC4100 IMP4213, increased outer-membrane permeability; 35° C., 22 hours
Method in brief: as §1

[3] = tested on: Escherichia coli ATCC 25922; assay: Minimum inhibitory concentration, broth micro-dilution (CLSI), E. coli; assay type: cell-based; details: Escherichia coli, ATCC25922, 22 h, 35° C., 22 hours
[4] = biological target: T1, SpsB (Staphylococcus aureus signal peptidase) (Staphylococcus aureus, UniProt P0A070); assay: cell-based; assay type: biochemical; details: SpsB IC50, whole-cell S. aureus (USA300 background, overexpressing SpsB) as SpsB source; fluorogenic peptide substrate, kinetic read 30 min
T1 construct: This assay uses a suspension of Staphylococcus aureus cells as a source of SpsB instead of recombinant SpsB protein; endogenous in cells; host or cells: S. aureus, USA300 background, overexpressing SpsB (whole-cell suspension from frozen pellets)
T1 sequence (P0A070 whole entry): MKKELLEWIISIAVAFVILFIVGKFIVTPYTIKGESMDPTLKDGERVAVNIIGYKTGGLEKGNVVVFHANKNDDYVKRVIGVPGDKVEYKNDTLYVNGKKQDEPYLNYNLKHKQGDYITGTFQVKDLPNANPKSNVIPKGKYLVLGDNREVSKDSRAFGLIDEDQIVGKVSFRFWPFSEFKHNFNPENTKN
Method in brief: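 Whole S. aureus cells (USA300, overexpressing SpsB) in PBS with MgCl2, CaCl2 and 0.1% Tween-80 served as enzyme source, mixed with 20 μM stock of (Dabcyl)βAla-KPAKAAE(Edans) substrate before use. Fluorescence (ex 340/em 490 nm) read kinetically over 30 min. IC50 from reaction rate versus 11-point inhibitor concentration.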

[5] = MRSA USA 300 NRS384, read-out: MIC (μg/mL) S. aureus
[6] = E. coli ATCC 25922, read-out: MIC (μg/mL) E. coli
[7] = read-out: MIC (μg/mL) S. aureus, MRSA USA 300 NRS384
[8] = read-out: MIC (μg/mL) E. coli, E. coli ATCC 25922

Row | SMILES | MIC [1, 5] | MIC [2] | MIC [3, 6] | IC50 [4] | MIC [1, 7] | MIC [3, 8]
1 | CCCCCCCCCCCCCC(=O)N[C@@H](CCN)C(=O)N(C)[C@@H]1C(=O)N[C@@H](C)C(=O)N[C@H](C(=O)NCC#N)Cc2ccc(OCCN)c(c2)-c2cc1ccc2OCCO [Compound 329] | 0.063 µg/mL (≈ 0.0742 µM) | 0.0078 µg/mL (≈ 0.00919 µM) | 0.5 µg/mL (≈ 0.589 µM) | 0.71 nM |  | 
2 | CCCCCCCCCCCCCC(=O)N[C@@H](CCN)C(=O)N(C)[C@@H]1C(=O)N[C@@H](C)C(=O)N[C@H](C(=O)NCC#N)Cc2ccc(OCCN)c(c2)-c2cc1ccc2OCC [Compound 330] | 0.25 µg/mL (≈ 0.3 µM) | 0.063 µg/mL (≈ 0.0756 µM) | 1 µg/mL (≈ 1.2 µM) | 1 nM |  | 
3 | CCCCc1ccc(-c2ccc(C(=O)N[C@@H](CCCCN)C(=O)N(C)[C@@H]3C(=O)N[C@@H](C)C(=O)N[C@H](C(=O)NCC#N)Cc4ccc(OCCN)c(c4)-c4cc3ccc4OCCN)cc2)cc1 [Compound 331] |  | 0.023 µg/mL (≈ 0.0255 µM) |  | 0.34 nM | 0.063 µg/mL (≈ 0.0698 µM) | 0.69 µg/mL (≈ 0.765 µM)
4 | CCCCc1ccc(-c2ccc(C(=O)N[C@@H](CCCCN)C(=O)N(C)[C@@H]3C(=O)N[C@@H](C)C(=O)N[C@H](C(=O)N[C@@H](C)C#N)Cc4ccc(OCCN)c(c4)-c4cc3ccc4OCCN)cc2)cc1 [Compound 332] | 0.13 µg/mL (≈ 0.142 µM) | < 0.063 µg/mL | 3 µg/mL (≈ 3.27 µM) | 0.56 nM |  | 
5 | CCCCCCCCCCCCCC(=O)N[C@@H](CCCCN)C(=O)N(C)[C@@H]1C(=O)N[C@@H](C)C(=O)N[C@H](C(=O)N[C@@H](C)C#N)Cc2ccc(OCCN)c(c2)-c2cc1ccc2OCCO [Compound 333] | < 0.063 µg/mL | < 0.063 µg/mL | 1 µg/mL (≈ 1.12 µM) | 0.8 nM |  | 
6 | CCCCCCCCCCCCCC(=O)N[C@@H](CCCCN)C(=O)N(C)[C@@H]1C(=O)N[C@@H](C)C(=O)N[C@H](C(=O)NCC#N)Cc2ccc(OCCN)c(c2)-c2cc1ccc2OCCN [Compound 334] | < 0.063 µg/mL | < 0.063 µg/mL | 0.5 µg/mL (≈ 0.571 µM) | 1.3 nM |  | 
7 | CCCCCCCCc1ccc(C(=O)N[C@@H](CCCN)C(=O)N(C)[C@@H]2C(=O)N[C@@H](C)C(=O)N[C@H](C(=O)NCC#N)Cc3ccc(OCCN)c(c3)-c3cc2ccc3OCCN)cc1 [Compound 335] | 0.031 µg/mL (≈ 0.0357 µM) | 0.016 µg/mL (≈ 0.0184 µM) | 0.25 µg/mL (≈ 0.288 µM) | 0.56 nM |  | 
8 | CCCCCCCCCCCCCC(=O)N[C@@H](CCCN)C(=O)N(C)[C@@H]1C(=O)N[C@@H](C)C(=O)N[C@H](C(=O)NCC#N)Cc2ccc(OCCN)c(c2)-c2cc1ccc2OCCN [Compound 336] | 0.063 µg/mL (≈ 0.0731 µM) | 0.023 µg/mL (≈ 0.0267 µM) | 0.25 µg/mL (≈ 0.29 µM) | < 0.5 nM |  | 
9 | CCCCCCCCCCCCCC(=O)N[C@@H](CCN)C(=O)N(C)[C@@H]1C(=O)N[C@@H](C)C(=O)N[C@H](C(=O)NCC#N)Cc2ccc(OCCN)c(c2)-c2cc1ccc2OCCN [Compound 337] | 0.031 µg/mL (≈ 0.0366 µM) | 0.016 µg/mL (≈ 0.0189 µM) | 0.25 µg/mL (≈ 0.295 µM) | < 0.5 nM |  | 
10 | CCCCc1ccc(-c2ccc(C(=O)N[C@@H](CCN)C(=O)N(C)[C@@H]3C(=O)N[C@@H](C)C(=O)N[C@H](C(=O)NCC#N)Cc4ccc(OCCN)c(c4)-c4cc3ccc4OCCN)cc2)cc1 [Compound 338] |  | 0.023 µg/mL (≈ 0.0263 µM) |  | < 0.5 nM | 0.063 µg/mL (≈ 0.0721 µM) | 0.19 µg/mL (≈ 0.217 µM)
11 | CCCCCCCCc1ccc(C(=O)N[C@@H](CCN)C(=O)N(C)[C@@H]2C(=O)N[C@@H](C)C(=O)N[C@H](C(=O)NCC#N)Cc3ccc(OCCN)c(c3)-c3cc2ccc3OCCN)c(C)c1 [Compound 339] | 0.047 µg/mL (≈ 0.0541 µM) | 0.018 µg/mL (≈ 0.0207 µM) | 0.13 µg/mL (≈ 0.15 µM) | < 0.5 nM |  | 
12 | CCCCc1ccc(-c2ccc(C(=O)N[C@@H](CN)C(=O)N(C)[C@@H]3C(=O)N[C@@H](C)C(=O)N[C@H](C(=O)NCC#N)Cc4ccc(OCCN)c(c4)-c4cc3ccc4OCCN)cc2)cc1 [Compound 341] | 0.13 µg/mL (≈ 0.151 µM) | 0.031 µg/mL (≈ 0.036 µM) | 0.5 µg/mL (≈ 0.581 µM) | 1.1 nM |  | 
13 | CCCCCCCCCCCCCC(=O)N[C@@H](CN)C(=O)N(C)[C@@H]1C(=O)N[C@@H](C)C(=O)N[C@H](C(=O)N[C@@H](C)C#N)Cc2ccc(OCCN)c(c2)-c2cc1ccc2OCCN [Compound 342] | 0.19 µg/mL (≈ 0.224 µM) | 0.063 µg/mL (≈ 0.0743 µM) | 0.5 µg/mL (≈ 0.59 µM) | 1.3 nM |  | 
14 | CCCCCCCCCCCCCC(=O)N[C@@H](CN)C(=O)N(C)[C@@H]1C(=O)N[C@@H](C)C(=O)N[C@H](C(=O)NCC#N)Cc2ccc(OCCN)c(c2)-c2cc1ccc2OCCN [Compound 343] | 0.094 µg/mL (≈ 0.113 µM) | 0.063 µg/mL (≈ 0.0755 µM) | 0.25 µg/mL (≈ 0.3 µM) | 0.73 nM |  | 
